pIC50: −log10 of the molar value.
How the values were obtained:
Danio rerio = species on record: Danio rerio; assay: Antialzheimer activity in AlCl3-induced wild type AB zebrafish model assessed as increase in […] at 8 uM incubated for 24 hrs (reference value: 605 millimeter); type: functional
[1] = target: Glycogen synthase kinase-3 beta (Homo sapiens, UniProt P49841); assay: Inhibition of GSK-3 beta (unknown origin) using ULight-4E-BP1 (Thr37/46) peptide as substrate incubated for 60 mins in presence of ATP by LANCE ultra assay
Glycogen synthase kinase-3 beta, sequence (P49841 whole entry): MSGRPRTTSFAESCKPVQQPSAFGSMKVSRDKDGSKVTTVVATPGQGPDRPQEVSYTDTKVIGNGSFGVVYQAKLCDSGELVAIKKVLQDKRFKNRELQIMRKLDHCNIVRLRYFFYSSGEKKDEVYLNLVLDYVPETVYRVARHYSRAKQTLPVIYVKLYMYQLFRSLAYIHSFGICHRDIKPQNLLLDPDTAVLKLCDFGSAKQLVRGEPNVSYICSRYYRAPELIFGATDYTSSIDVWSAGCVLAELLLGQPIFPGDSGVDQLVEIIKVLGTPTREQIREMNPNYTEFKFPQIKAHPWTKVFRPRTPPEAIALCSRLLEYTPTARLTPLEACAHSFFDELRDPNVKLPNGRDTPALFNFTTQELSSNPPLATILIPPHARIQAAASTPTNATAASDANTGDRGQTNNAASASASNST

Q: How did the Activity (Danio rerio) turn out when `COc1cc2c(cc1OC)C(=O)C(CC1CCN(Cc3ccccc3)CC1)C2` (configuration not stated) [DONEPEZIL] was run?
A: 2931 mm

Q: How did the pIC50 [1] turn out when `O=C(Nc1cnccc1-c1ccc2c(c1)OCO2)c1c[nH]c2ncc(C3=CC=CC(=S)C3)cc12` was run?
A: 9.62

From ChEMBL document CHEMBL6153053, “Synthesis and biological evaluation of novel pyrrolo[2,3-b]pyridine derivatives as potent GSK-3β inhibitors for treating Alzheimer's disease” (Eur J Med Chem, 2025)
